Assay results taken from ChEMBL document CHEMBL4177658, “Benzo[c][1,2,5]thiadiazole derivatives: A new class of potent Src homology-2 domain containing protein tyrosine phosphatase-2 (SHP2) inhibitors” (Bioorg Med Chem Lett, 2017).
pIC50: −log10 of the molar value.

Experiments:
[1] = molecular target: T1, Tyrosine-protein phosphatase non-receptor type 11 (Homo sapiens, UniProt Q06124); test: Inhibition of SHP2 (unknown origin) using 3-o-methylfluorescein phosphate as substrate by fluorescence assay
T1 sequence (Q06124 whole entry): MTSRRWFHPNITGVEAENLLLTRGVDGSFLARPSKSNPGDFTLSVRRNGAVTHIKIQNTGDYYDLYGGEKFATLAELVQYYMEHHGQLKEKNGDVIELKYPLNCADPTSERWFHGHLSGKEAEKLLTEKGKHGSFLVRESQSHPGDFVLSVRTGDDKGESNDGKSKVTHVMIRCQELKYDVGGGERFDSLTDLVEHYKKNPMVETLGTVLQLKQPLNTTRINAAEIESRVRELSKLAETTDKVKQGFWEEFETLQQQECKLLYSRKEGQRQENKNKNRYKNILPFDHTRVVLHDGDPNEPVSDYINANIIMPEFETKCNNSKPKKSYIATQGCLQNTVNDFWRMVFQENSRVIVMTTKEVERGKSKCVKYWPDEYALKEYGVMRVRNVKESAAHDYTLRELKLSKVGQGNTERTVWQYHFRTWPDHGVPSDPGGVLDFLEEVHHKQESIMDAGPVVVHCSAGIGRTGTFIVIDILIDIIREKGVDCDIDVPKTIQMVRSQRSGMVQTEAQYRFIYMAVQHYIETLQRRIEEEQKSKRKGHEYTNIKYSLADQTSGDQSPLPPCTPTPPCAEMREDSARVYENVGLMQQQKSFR

[2] = molecular target: T2, Tyrosine-protein phosphatase non-receptor type 1 (Homo sapiens) (UniProt P18031); test: Inhibition of GST-tagged PTP1B (unknown origin) at 20 ug/ml using pNPP as substrate measured for 3 mins by colorimetric assay
T2 sequence (whole entry): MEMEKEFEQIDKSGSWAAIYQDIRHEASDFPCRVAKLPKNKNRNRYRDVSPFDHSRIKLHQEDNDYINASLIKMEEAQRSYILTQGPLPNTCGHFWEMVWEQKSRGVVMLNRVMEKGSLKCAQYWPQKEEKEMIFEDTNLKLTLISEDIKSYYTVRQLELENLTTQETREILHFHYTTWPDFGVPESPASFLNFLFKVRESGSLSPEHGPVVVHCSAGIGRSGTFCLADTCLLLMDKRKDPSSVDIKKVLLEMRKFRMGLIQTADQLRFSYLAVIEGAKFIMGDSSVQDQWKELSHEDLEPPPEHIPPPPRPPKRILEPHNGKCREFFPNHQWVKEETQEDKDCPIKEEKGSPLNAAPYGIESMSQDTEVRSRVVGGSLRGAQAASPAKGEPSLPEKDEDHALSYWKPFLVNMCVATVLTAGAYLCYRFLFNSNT

[3] = molecular target: T3, Tyrosine-protein phosphatase non-receptor type 1 (Homo sapiens, UniProt P18031); test: Inhibition of GST-tagged PTP1B (unknown origin) using pNPP as substrate measured for 3 mins by colorimetric assay
T3 sequence (P18031 whole entry): T2 sequence (whole entry)

[4] = molecular target: T4, Tyrosine-protein phosphatase non-receptor type 11 (Homo sapiens) (UniProt Q06124); test: Inhibition of SHP2 (unknown origin) at 20 ug/ml using 3-o-methylfluorescein phosphate as substrate by fluorescence assay
T4 sequence (whole entry): T1 sequence (Q06124 whole entry)

Homo sapiens [5] = organism: Homo sapiens; test: Selectivity index, ratio of IC50 for SHP1 (unknown origin) to IC50 for SHP2 (unknown origin)
Homo sapiens [6] = organism: Homo sapiens; test: Selectivity index, ratio of IC50 for GST-tagged PTP1B (unknown origin) to iC50 for SHP2 (unknown origin)
[7] = molecular target: Tyrosine-protein phosphatase non-receptor type 6 (Homo sapiens, UniProt P29350); test: Inhibition of SHP1 (unknown origin) using 3-o-methylfluorescein phosphate as substrate by fluorescence assay
Chain of Tyrosine-protein phosphatase non-receptor type 6 (P29350 whole entry): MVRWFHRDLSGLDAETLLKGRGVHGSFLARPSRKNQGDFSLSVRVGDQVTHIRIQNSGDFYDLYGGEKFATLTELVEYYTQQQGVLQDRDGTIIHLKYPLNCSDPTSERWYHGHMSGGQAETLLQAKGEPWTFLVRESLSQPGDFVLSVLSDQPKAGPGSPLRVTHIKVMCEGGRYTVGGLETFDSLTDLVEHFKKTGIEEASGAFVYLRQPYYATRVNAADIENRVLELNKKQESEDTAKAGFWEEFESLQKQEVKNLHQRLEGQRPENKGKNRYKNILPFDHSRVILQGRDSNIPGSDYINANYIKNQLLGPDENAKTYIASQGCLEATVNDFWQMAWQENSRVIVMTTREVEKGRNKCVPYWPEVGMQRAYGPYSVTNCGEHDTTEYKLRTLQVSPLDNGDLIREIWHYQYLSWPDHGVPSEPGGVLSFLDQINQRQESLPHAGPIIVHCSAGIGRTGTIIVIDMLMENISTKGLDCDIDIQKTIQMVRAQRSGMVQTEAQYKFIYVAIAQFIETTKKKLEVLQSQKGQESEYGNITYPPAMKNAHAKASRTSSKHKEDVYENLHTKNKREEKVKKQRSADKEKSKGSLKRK

[8] = molecular target: T5, Tyrosine-protein phosphatase non-receptor type 2 (Homo sapiens) (UniProt P17706); test: Inhibition of GST-tagged TCPTP (unknown origin) at 20 ug/ml using pNPP as substrate measured for 3 mins by colorimetric assay
T5 sequence (whole entry): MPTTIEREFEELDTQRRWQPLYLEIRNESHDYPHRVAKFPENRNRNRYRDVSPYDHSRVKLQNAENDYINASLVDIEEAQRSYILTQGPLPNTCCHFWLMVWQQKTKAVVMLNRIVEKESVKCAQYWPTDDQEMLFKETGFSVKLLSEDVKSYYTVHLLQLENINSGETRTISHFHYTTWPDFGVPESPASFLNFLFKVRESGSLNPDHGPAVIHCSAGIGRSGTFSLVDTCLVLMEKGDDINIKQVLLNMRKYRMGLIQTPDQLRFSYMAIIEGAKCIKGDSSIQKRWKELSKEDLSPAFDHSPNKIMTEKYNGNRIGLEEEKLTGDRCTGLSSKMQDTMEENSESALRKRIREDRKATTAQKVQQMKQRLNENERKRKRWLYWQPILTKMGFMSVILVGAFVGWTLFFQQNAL

pIC50 [1]	inhibition [2] [%]	inhibition [4] [%]	SMILES	further results
4.81	< 50		Nc1cc2nsnc2cc1C#CC1CC1	
4.58			c1ccc(CNc2ccc3nsnc3c2)cc1	pIC50 [3]: 4.38
	< 50	< 50	Nc1cc2nsnc2cc1-c1ccccc1	
4.59	< 50		CC(C)(C)C#Cc1cc2nsnc2cc1N	
4.62			c1csc(CNc2ccc3nsnc3c2)c1	pIC50 [3]: 4.32
4.51	< 50		c1ccc(CNc2ccc3nsnc3c2)nc1	
4.41	< 50		Nc1ccc2nsnc2c1	
	< 50	< 50	CC(C)(C)C#Cc1cc2nsnc2cc1[N+](=O)[O-]	
	< 50	< 50	O=[N+]([O-])c1cc2nsnc2cc1-c1ccccc1	
4.52	< 50		C#Cc1cc2nsnc2cc1[N+](=O)[O-]	
	< 50	< 50	O=[N+]([O-])c1cc2nsnc2cc1C#Cc1ccccc1	
	< 50	< 50	c1cc2nsnc2cc1NCC1CCCCC1	
5.68			C#Cc1cc2nsnc2cc1N	pIC50 [3]: 4.30; Ratio IC50 (Homo sapiens [5]): 2.02; Ratio IC50 (Homo sapiens [6]): 25; pIC50 [7]: 5.37; inhibition [8]: < 50%
	< 50	< 50	CCCNc1ccc2nsnc2c1	
	< 50	< 50	O=[N+]([O-])c1cc2nsnc2cc1C#CC1CC1	
4.85			Nc1cc2nsnc2cc1C#Cc1ccccc1	pIC50 [3]: 4.47
4.37	< 50		Nc1cc2nsnc2cc1Br	
	< 50	< 50	C[Si](C)(C)C#Cc1cc2nsnc2cc1[N+](=O)[O-]	
	< 50	< 50	c1coc(CNc2ccc3nsnc3c2)c1	
	< 50	< 50	O=[N+]([O-])c1cc2nsnc2cc1C#CCCCCCl	
5.24			Nc1cc2nsnc2cc1C#CCCCCCl	pIC50 [3]: 4.42
	< 50	< 50	C[Si](C)(C)C#Cc1cc2nsnc2cc1N	
